Key:
[1] = tested on: patients with lung diseases including COPD; assay: Comparison of inhaled salts of pyruvate, 5 ml of 0.5 mM solution (Table I)
[2] = tested on: COPD patients with Allergic Rhinitis; assay: 20 mM sodium pyruvate nasal sprays over three months (Table VI); type: in vivo, human; details: 20 mM nasal spray
[3] = tested on: patients with Allergic Rhinitis other lung diseases; assay: Two-year log of 367 patients using the 20 mM sodium pyruvate nasal spray (Table XIII); type: in vivo, human; details: healthy patients with no underlying diseases; 20 mm in at least 0.9% sodium chloride
Description: Table XIII. 367 patients over a two-year period. Each patient was provided with a log page to record the effect of inhaled 20 mM sodium pyruvate surfactant enhancer formula. The FDA has recommended that we do a phase three clinical for Allergic Rhinitis for patients where steroids are counter indicated i.e. Children, pregnant women and diabetics. Percentage measurements in patients with Allergic Rhinitis other lung diseases. 20 mM sodium pyruvate formula in 0.9% saline […] was inhaled. Overall rating was 1-10 with 1 being the most negative and 10 being the best result. The increase in nasal and lung surfactants and nasal and lung nitric oxide inhibited the docking and adhesion of viruses in the patients listed below with especially in patients with diabetes or hypoxemia. All these viruses including coronavirus, the flu (influenza A or B) and rhinovirus were unable to dock on the ACE2 type receptor and reduced the rate, severity, duration and spread of the viruses.

[4] = Rat studies of irritation or toxicity; type: in vivo; details: 100× concentrations of the 5 mM sodium pyruvate
Text: Ethane and alcohol are lung irritants.

[5] = tested on: isolated perfused rat lungs; assay: Incorporation of [2-(14)C] labeled pyruvate into lung surfactants; details: inhalation studies, without calcium, phosphate and magnesium
[6] = tested on: patients with or without lung damage; assay: Controlled inhalation studies of 20 mM sodium pyruvate in saline; type: in vivo, human
Description: Sodium chloride is mainly used as nasal or lung moisturizer. […] They produce no change to FEV-1 or SaO2 measurements. It must be noted that there is a difference between people who have transient hypoxemia vs. one that has permanent hypoxemia. The patients respond differently to the inhalation of 20 mM sodium pyruvate in saline by itself without calcium, phosphate and magnesium. Sodium pyruvate formulations both given orally or by inhalation will increase SaO2 levels in people without lung injury to the alveoli structure especially the mitochondria that can synthesis the phospholipids needed for oxygen exchange and uptake. Transient hypoxemia is a self-correcting effect. It occurs in over exercising, mountain climbing etc. […] In patients with infections, i.e. CF and allergic Rhinitis, Nitric Oxide increase by over 400% over base line measurements with the use of the sodium pyruvate, calcium, phosphate and magnesium formula, needed to fight infections and lung cancer (see table IV).

[7] = tested on: patients suffering from severe lung injury or mitochondrial damage or COPD and Hypoxemia; assay: Two months nebulized treatment, lung capacity; type: in vivo, human; details: phosphate and magnesium
Text: Total lung capacity is the volume in the lungs at maximal inflation, the sum of VC and RV. RV is the residual volume of air remaining in the lungs after a maximal exhalation. VC vital capacity is the volume of air breath out after the deepest inhalation. Vital capacity in males is 4.8 liters and in women 3.8 liters. Slow vital capacity (SVC) is the maximum volume of air that can be exhaled slowly after slow maximum inhalation. Three male patients suffering from severe lung injury or mitochondrial damage or COPD and Hypoxemia were treated as described below for two (2) months. […] In fact, dramatic results were observed within two (2) weeks.
[…] The sterile pyruvate 15 solution is placed into a “Pulmo Aid” nebulizer manufactured by DeVilbiss Co., Somerset, Pa. 15501-0635. The sterile pyruvate solution is nebulized by the Pulmo Aid device fitted with a disposable nebulizer and inhaled by the patient. The patient inhales normally from the Pulmo Aid nebulizer until all of the solution has been nebulized and inhaled. This inhalation step typically takes about ten (10) to twenty 20 (20) minutes. The patients were treated with this inhalation therapy periodically. Initially, treatments are about four (4) times a day at about six (6) hour intervals. Treatments were reduced to three (3) times a day at about eight (8) hour intervals after 20 days of therapy. […]

[8] = tested on: patients with lung diseases including COPD; assay: Comparison of inhaled salts of pyruvate, 5 ml of 5 mM solution (Table II)
[9] = 5 ml of 0.5 mM solution, inhaled

CC(=O)C(=O)[O-].[Na+] [Sodium, sodium pyruvate]
Increased in FEV-1% lung function ([1]; 5 ml of 0.5 mM solution in physiological saline, inhaled): 13.0% | Irritation [1, 9]: none | Percentage Increase in SaO2 over baseline [1, 9]: 0.5% | Percentage decrease or increase of Nitric Oxide over baseline [1, 9]: −19.0% | Relief of congestion, coughing and lung tightness [1, 9]: 5 | Overall Rating 1-10 ([1]; 5 ml of 0.5 mM solution, 1 most negative, 10 best): 8 | FEV1 ([1]; 5 mls of a 0.5 mM pyruvate inhalation solution in COPD and asthmatic patients): ≥ 12% | Overall Rating 1-10 [2]: 7 | Percentage decrease in COPD symptoms [2]: 18.0% | Percentage decrease in us of RX medications [2]: 20% | Rating 1-10 Congestion and lung tightness [2]: 5 | Rating 1-10 decrease in shortness of breath [2]: 6.0 | Relief of coughing. Percentage Daily decrease [2]: 15% | amount of flu or colds reduced [3]: 52% | duration of the infection symptoms in days reduced [3]: 56% | irritation or toxicity [4]: not to have any irritation or toxicity | incorporation into synthesized phospholipids [5]: not incorporated into synthesized phospholipids | SaO2 levels ([6]; Patients with lung damage, like in smokers, 20 mM without calcium, phosphate and magnesium): did not show an increase SaO2 levels | increase of SaO2, average ([6]; patients with no lung injuries or disease, after exercising, 20 mM in saline): 3% | improvement in SaO2 levels ([7]; one of the three patients, end of the two months, without calcium): 3% | improvement in lung functions, especially total lung capacity ([7]; same three patients, formulas without the calcium): no or little improvement in lung functions | Increased in FEV-1% ([8]; 5 ml of 5 mM solution in saline, inhaled): 2.0% | Irritation ([8]; 5 ml of 5 mM solution, inhaled): none | Percentage Increase in SaO2 over baseline ([8]; 5 ml of 5 mM solution, inhaled): 1% | Percentage increase of Nitric Oxide over baseline ([8]; 5 ml of 5 mM solution, inhaled): 19.0% | Relief of congestion, coughing and lung tightness ([8]; 5 ml of 5 mM solution, inhaled): 5 | Overall Rating 1-10 ([8]; 5 ml of 5 mM solution, 1 most negative, 10 best): 8

From US11628186B2, “Method and composition for the reduction of viral replication, duration and spread of the COVID-19 and the flu” (priority 2017, dated 2023)
